Experimental data reported in patent US20240384250A1, “FIBROBLAST GROWTH FACTOR 23 MODULATING COMPOUNDS” (THE UAB RESEARCH FOUNDATION, priority 2021, published 2024).
“Also recorded” adds a separate entry of the source.

Experiments:
[1] = biological target: T1, FGF23 binding to FGFR1c (Homo sapiens, UniProt P11362+Q9GZV9); assay: Plate-based binding, FGF23 coated, then sKL, heparin or PBS, then Fc-FGFR; details: with sKL, with heparin 0.4 USP, or alone
T1 construct: Fc-coupled FGFR ectodomains were immobilized on protein A/G beads; purchased R&D Systems 2604FG025/CF or 2629FG025/CF; 658FR050
T1 sequence (Q9GZV9 25-251): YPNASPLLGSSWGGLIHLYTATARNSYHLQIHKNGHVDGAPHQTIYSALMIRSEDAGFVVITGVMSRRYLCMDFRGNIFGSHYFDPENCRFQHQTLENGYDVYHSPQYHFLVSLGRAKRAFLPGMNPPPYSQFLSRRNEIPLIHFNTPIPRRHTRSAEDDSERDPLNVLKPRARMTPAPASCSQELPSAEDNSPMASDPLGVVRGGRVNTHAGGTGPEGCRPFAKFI
T1 sequence (P11362 22-376 limits assumed): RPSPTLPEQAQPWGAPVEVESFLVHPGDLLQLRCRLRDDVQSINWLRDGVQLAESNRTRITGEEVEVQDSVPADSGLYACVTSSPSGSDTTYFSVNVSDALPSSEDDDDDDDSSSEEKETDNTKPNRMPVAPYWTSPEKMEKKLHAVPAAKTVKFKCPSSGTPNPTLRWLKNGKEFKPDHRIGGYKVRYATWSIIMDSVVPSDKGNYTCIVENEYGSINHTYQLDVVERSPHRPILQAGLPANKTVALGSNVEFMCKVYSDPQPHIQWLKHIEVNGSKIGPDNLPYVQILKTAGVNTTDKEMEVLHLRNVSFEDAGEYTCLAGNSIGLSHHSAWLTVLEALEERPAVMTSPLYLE
Protocol: (§1) Proteins were coated on 96-well plates (MaxiSorp; 439454, Thermo Fisher Scientific), and proteins were added to wells in 100 μl of enzyme-linked immunosorbent assay (ELISA) coating buffer (E107, Bethyl Laboratories) with a lid placed overtop and incubated at 4° C. overnight. Plates were washed 5× with 350 μl of assay buffer (50 mM Tris [pH 7.4], 200 mM NaCl, 0.01% Tween 20) on a 50 TS microplate washer (BioTek). Plates were blocked for 1 hour in 200 μl of assay buffer with 0.5% BSA. Plates were washed as before, and proteins were incubated on plates in 100 μl of assay buffer with 0.5% BSA. Proteins or heparin was incubated in orders described in the respective figure legends. Assays using FLAG-tag-based detection were incubated with anti-FLAG coupled to HRP at 1:20,000, and assays using Fc detection were incubated with anti-human Fc coupled to HRP at 1:10,000. Plates were washed as above, and 100 μl of 3,3′,5,5′-tetramethylbenzidine (TMB) substrate (E102, Bethyl Laboratories) was added for 15 to 20 minutes until positive wells developed a dark blue color. Reactions were stopped with ELISA stop solution (E115, Bethyl Laboratories) and analyzed using the Synergy HI plate reader (BioTek) at 450 nm wavelength. […] As a control to remove background absorbance values, wells were coated with an equal amount of BSA to match the amount of protein coated in experimental wells and treated the same as experimental wells. To study the effects of sKL on the binding between paracrine FGFs and FGFRs, plates were run as above except coated with paracrine FGFs. Fc-FGFR1 was preincubated with sKL or vehicle for 60 minutes, and then the combination was added to wells and the assay was run as before.

[2] = biological target: T2, FGF23 binding to FGFR3c (Homo sapiens, UniProt P22607+Q9GZV9); assay: as above; details: with sKL, with heparin 0.4 USP, or alone
T2 construct: Fc-coupled FGFR ectodomains were immobilized on protein A/G beads; purchased R&D Systems 2604FG025/CF or 2629FG025/CF; 766FR050
T2 sequence (Q9GZV9 25-251): as the sequence (Q9GZV9 25-251) above
T2 sequence (P22607 23-375 limits assumed): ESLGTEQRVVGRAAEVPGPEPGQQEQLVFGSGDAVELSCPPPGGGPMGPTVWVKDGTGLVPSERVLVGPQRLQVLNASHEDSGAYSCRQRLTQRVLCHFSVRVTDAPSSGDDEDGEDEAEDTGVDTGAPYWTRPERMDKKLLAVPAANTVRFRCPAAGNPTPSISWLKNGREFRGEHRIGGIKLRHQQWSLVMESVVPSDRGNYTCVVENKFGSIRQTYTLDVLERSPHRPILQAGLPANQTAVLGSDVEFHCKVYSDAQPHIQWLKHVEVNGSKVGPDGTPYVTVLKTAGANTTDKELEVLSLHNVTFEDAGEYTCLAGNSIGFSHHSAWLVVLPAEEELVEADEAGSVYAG
Protocol: as §1

[3] = biological target: T3, FGF23 binding to FGFR2c (Homo sapiens, UniProt P21802); assay: as above; details: with sKL, with heparin 0.4 USP, or alone
T3 construct: Fc-coupled FGFR ectodomains were immobilized on protein A/G beads; purchased R&D Systems 2604FG025/CF or 2629FG025/CF; 712FR050
T3 sequence (P21802 22-377 limits assumed): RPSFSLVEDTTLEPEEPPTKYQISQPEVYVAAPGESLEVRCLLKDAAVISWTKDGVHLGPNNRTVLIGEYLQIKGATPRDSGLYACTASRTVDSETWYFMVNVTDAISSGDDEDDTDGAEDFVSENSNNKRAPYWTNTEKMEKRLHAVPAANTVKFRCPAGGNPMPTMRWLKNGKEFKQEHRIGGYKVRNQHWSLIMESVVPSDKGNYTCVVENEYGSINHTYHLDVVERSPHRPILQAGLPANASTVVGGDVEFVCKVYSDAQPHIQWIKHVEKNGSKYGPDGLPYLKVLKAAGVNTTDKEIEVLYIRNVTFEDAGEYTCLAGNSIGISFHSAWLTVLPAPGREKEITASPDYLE
Protocol: as §1

[4] = biological target: T4, FGF23 binding to FGFR4 (Homo sapiens, UniProt P22455+Q9GZV9); assay: as above; details: with sKL, with heparin 0.4 USP, or alone
T4 construct: Fc-coupled FGFR ectodomains were immobilized on protein A/G beads; purchased R&D Systems 2604FG025/CF or 2629FG025/CF; 685FR050
T4 sequence (Q9GZV9 25-251): as the sequence (Q9GZV9 25-251) above
T4 sequence (P22455 22-369 limits assumed): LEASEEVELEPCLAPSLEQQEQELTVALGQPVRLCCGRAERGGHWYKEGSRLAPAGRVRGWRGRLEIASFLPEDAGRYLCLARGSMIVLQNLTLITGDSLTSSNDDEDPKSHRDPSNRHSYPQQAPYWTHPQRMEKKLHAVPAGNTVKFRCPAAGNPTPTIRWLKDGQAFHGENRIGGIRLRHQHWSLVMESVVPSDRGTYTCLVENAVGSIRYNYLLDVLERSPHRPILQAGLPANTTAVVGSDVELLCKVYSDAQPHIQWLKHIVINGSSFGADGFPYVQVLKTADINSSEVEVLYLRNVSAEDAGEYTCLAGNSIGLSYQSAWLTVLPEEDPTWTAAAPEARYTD
Protocol: as §1

[5] = tested on: FGF21 binding to FGFR isoforms 1c, 2c, 3c, 4; assay: Pull-down and plate binding of FGF21 to FGFR isoforms with sKL or heparin; parameters: species or system human
Protocol: (§2) To study the interaction between Fc-tagged FGFR isoforms (Fc-FGFR), FGF isoforms, and sKL, immunoprecipitation studies were conducted. Protein A beads (6501, BioVision) and protein G beads (6511, BioVision) were used at 25 μl of a 50% stock slurry per sample in a total bead volume of 50 μl. Beads were washed 5× in activity buffer (50 mM Tris [pH 7.4], 200 mM NaCl, 0.01% Tween 20). Bead spin-down assays were all performed for 2 minutes at 5000 g. Beads were resuspended in 1 ml of activity buffer in a 1.5-ml snap cap tube. One microgram of Fc-FGFR1 to 4 was incubated with the beads for 1 hour on a bead rotator. Control samples were incubated with 2 μg of anti-FGF antibody instead of Fc-FGFR. […] Samples were analyzed using SDS-PAGE and Western blotting.
(§3) Proteins were coated on 96-well plates (MaxiSorp; 439454, Thermo Fisher Scientific), and proteins were added to wells in 100 μl of enzyme-linked immunosorbent assay (ELISA) coating buffer (E107, Bethyl Laboratories) with a lid placed overtop and incubated at 4° C. overnight. […] Reactions were stopped with ELISA stop solution (E115, Bethyl Laboratories) and analyzed using the Synergy HI plate reader (BioTek) at 450 nm wavelength. […] As a control to remove background absorbance values, wells were coated with an equal amount of BSA to match the amount of protein coated in experimental wells and treated the same as experimental wells. […]

[6] = tested on: FGF19 binding to FGFR isoforms 1c, 2c, 3c, 4; assay: Pull-down and plate binding of FGF19 to FGFR isoforms with sKL or heparin; parameters: species or system human
FGF19 binding to FGFR isoforms 1c, 2c, 3c, 4, sequence (O95750 25-216): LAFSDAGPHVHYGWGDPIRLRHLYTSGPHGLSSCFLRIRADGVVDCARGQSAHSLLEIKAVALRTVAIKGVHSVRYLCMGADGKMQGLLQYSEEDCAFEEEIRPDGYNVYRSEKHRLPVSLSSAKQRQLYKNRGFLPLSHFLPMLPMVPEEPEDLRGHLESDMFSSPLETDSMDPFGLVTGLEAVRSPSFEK
Protocol: as §2, §3

heparin [reference compound]
binding of coated FGF23 to Fc-FGFR1c [1]: no measurable binding | binding of coated FGF23 to Fc-FGFR3c [2]: no measurable binding | binding of coated FGF23 to Fc-FGFR2c [3]: to a much lesser extent to FGFR2c; also recorded: weaker binding to FGFR2c | binding of coated FGF23 to Fc-FGFR4 [4]: significantly increased; also recorded: the strongest | binding of FGF21 to any of the FGFR isoforms [5]: does not mediate binding | binding of FGF19 to any of the FGFR isoforms [6]: does not mediate binding
